ChEMBL document CHEMBL3871277, “Synthesis and anti-metastatic effects of pregn-17(20)-en-3-amine derivatives” (Eur J Med Chem, 2016)
Activity calls are given as the source filed them. The rule behind the calls is not given here.

Experiments:
[1] = Antimigratory activity against EGF induced chemotaxis in human MDA-MB-231 cells preincubated for 24 hrs followed by EGF addition for 3.5 hrs by light microscopy; assay type: functional, cell-based
[2] = Antimigratory activity in human HepG2 cells at 4.5 uM after 24 hrs by wound healing assay; assay type: functional
[3] = Anti-invasive activity in human HepG2 cells at 4.5 uM after 24 hrs by MTT dye based boyden chamber assay; assay type: functional
MDA-MB-231 [4] = assay: Antimigratory activity in human MDA-MB-231 cells assessed as decrease in cell adhesion at 0.25 uM after 24 hrs by MTT assay; assay type: functional, cell-based
[5] = Effect on integrin-beta1 protein expression in human MDA-MB-231 cells at 5 to 45 uM by Western blot analysis; assay type: ADME, cell-based; conditions: mda-mb-231, 45 µM
[6] = target: Integrin beta-1 (Homo sapiens) (UniProt P05556); assay: Inhibition of integrin-beta1 phosphorylation in human MDA-MB-231 cells by Western blot analysis; assay type: cell-based
Sequence of Integrin beta-1 (Homo sapiens) (P05556 whole entry): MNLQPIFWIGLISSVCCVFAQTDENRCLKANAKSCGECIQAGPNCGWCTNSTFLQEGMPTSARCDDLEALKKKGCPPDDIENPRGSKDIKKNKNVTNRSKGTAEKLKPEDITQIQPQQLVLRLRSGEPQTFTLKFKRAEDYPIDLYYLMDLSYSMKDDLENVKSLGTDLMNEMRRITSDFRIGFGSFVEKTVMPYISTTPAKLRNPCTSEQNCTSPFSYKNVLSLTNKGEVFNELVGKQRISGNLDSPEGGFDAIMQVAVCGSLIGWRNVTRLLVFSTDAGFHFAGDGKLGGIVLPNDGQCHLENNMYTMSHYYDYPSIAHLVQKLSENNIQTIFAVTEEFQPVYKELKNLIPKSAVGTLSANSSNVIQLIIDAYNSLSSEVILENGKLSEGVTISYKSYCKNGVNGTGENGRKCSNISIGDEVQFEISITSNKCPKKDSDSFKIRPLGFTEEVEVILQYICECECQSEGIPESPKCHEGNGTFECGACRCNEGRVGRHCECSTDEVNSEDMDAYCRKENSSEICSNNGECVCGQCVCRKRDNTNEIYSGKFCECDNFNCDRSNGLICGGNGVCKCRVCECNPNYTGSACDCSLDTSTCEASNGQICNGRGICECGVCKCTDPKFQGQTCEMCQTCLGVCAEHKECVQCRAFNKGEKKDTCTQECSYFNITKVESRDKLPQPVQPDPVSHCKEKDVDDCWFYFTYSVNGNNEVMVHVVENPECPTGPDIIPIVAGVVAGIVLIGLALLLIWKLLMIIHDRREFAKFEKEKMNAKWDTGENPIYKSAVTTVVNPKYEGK

MDA-MB-231 [7] = assay: Inhibition of PI3K-p85 phosphorylation in human MDA-MB-231 cells by Western blot analysis; assay type: cell-based
MDA-MB-231 [8] = assay: Antimigratory activity in human MDA-MB-231 cells after 24 hrs by wound healing assay; assay type: functional, cell-based
MDA-MB-231 [9] = assay: Antiinvasive activity in human MDA-MB-231 cells after 24 hrs by transwell migration assay; assay type: functional, cell-based
[10] = Effect on PKCzeta protein expression in human MDA-MB-231 cells at 0.25 to 6.75 uM by Western blot analysis; assay type: ADME, cell-based; conditions: mda-mb-231, 6.75 µM
MDA-MB-231 [11] = assay: Antimigratory activity in human MDA-MB-231 cells assessed as decrease in cell adhesion to fibronectin at 1 to 40 uM after 24 hrs by MTT assay; assay type: functional, cell-based
MDA-MB-231 [12] = assay: Inhibition of PI3K-p85 in human MDA-MB-231 cells assessed as reduction in PKCzeta phosphorylation by Western blot analysis; assay type: cell-based
MDA-MB-231 [13] = assay: Inhibition of PI3K-p85 in human MDA-MB-231 cells assessed as reduction in Akt phosphorylation by Western blot analysis; assay type: cell-based
[14] = Homo sapiens, MDA-MB-231, read-out: IC50

Structure (SMILES) | IC50 [1, 14] | other results
C/C=C1/[C@H](O)C[C@H]2[C@@H]3CCC4C[C@@H](N)CC[C@]4(C)[C@H]3CC[C@]12C (stereo partly specified) |  | IC50 ([1]; mda-mb-231): Nd(Toxic)
C/C=C1/CC[C@H]2[C@@H]3CCC4C[C@H](N(C)C)CC[C@]4(C)[C@H]3CC[C@]12C (stereo partly specified) | 7.45 µM | 
C/C=C1/CC[C@H]2[C@@H]3CCC4C[C@@H](NCC)CC[C@]4(C)[C@H]3CC[C@]12C (stereo partly specified) | 0.17 µM | 
C/C=C1/C(=O)C[C@H]2[C@@H]3CCC4C[C@@H](N)CC[C@]4(C)[C@H]3CC[C@]12C (stereo partly specified) | 0.48 µM | 
C/C=C1/C(=O)C[C@H]2[C@@H]3CCC4C[C@H](NC)CC[C@]4(C)[C@H]3CC[C@]12C (stereo partly specified) |  | IC50 ([1]; mda-mb-231): Nd(Toxic)
C/C=C1/CC[C@H]2[C@@H]3CCC4C[C@H](N5CCCC5)CC[C@]4(C)[C@H]3CC[C@]12C (stereo partly specified) | 24.2 µM | 
C/C=C1/CC[C@H]2[C@@H]3CCC4C[C@H](N5CCCCC5)CC[C@]4(C)[C@H]3CC[C@]12C (stereo partly specified) | 2.48 µM | 
C/C=C1/CC[C@H]2[C@@H]3CCC4C[C@H](NCC)CC[C@]4(C)[C@H]3CC[C@]12C (stereo partly specified) | 20.2 µM | 
C[C@@H]1CC[C@@]2(NC1)O[C@H]1C[C@H]3[C@@H]4CC=C5C[C@@H](O[C@@H]6O[C@H](CO)[C@@H](O[C@@H]7O[C@@H](C)[C@H](O)[C@@H](O)[C@H]7O)[C@H](O)[C@H]6O[C@@H]6O[C@@H](C)[C@H](O)[C@@H](O)[C@H]6O)CC[C@]5(C)[C@H]4CC[C@]3(C)[C@H]1[C@@H]2C [SOLAMARGINE] |  | Activity [2]: 40%; Activity [3]: 40%
C/C=C1/C(=O)C[C@H]2[C@@H]3CCC4C[C@H](NCC)CC[C@]4(C)[C@H]3CC[C@]12C (stereo partly specified) |  | IC50 ([1]; mda-mb-231): Nd(Toxic)
C/C=C1/CC[C@H]2[C@@H]3CCC4C[C@H](N)CC[C@]4(C)[C@H]3CC[C@]12C (stereo partly specified) | 2.21 µM | 
C/C=C1/CC[C@H]2[C@@H]3CCC4C[C@H](NCc5ccc(C#N)cc5)CC[C@]4(C)[C@H]3CC[C@]12C (stereo partly specified) | > 50 µM | 
C/C=C1/[C@H](O)C[C@H]2[C@@H]3CCC4C[C@@H](N5CCCC5)CC[C@]4(C)[C@H]3CC[C@]12C (stereo partly specified) |  | IC50 ([1]; mda-mb-231): Nd(Toxic)
C/C=C1/CC[C@H]2[C@@H]3CCC4C[C@@H](NC(=O)c5ccc(C#N)cc5)CC[C@]4(C)[C@H]3CC[C@]12C (stereo partly specified) | 0.24 µM | 
C/C=C1/C(=O)C[C@H]2[C@@H]3CCC4C[C@@H](N5CCCC5)CC[C@]4(C)[C@H]3CC[C@]12C (stereo partly specified) |  | IC50 ([1]; mda-mb-231): Nd(Toxic)
C/C=C1/C(=O)C[C@H]2[C@@H]3CCC4C[C@H](N5CCCC5)CC[C@]4(C)[C@H]3CC[C@]12C (stereo partly specified) | > 50 µM | 
C/C=C1/[C@H](O)C[C@H]2[C@@H]3CCC4C[C@@H](NCC)CC[C@]4(C)[C@H]3CC[C@]12C (stereo partly specified) |  | IC50 ([1]; mda-mb-231): Nd(Toxic)
C/C=C1/C(=O)C[C@H]2[C@@H]3CCC4C[C@@H](NCC)CC[C@]4(C)[C@H]3CC[C@]12C (stereo partly specified) | 28.5 µM | 
C/C=C1/[C@H](O)C[C@H]2[C@@H]3CCC4C[C@@H](N(C)C)CC[C@]4(C)[C@H]3CC[C@]12C (stereo partly specified) |  | IC50 ([1]; mda-mb-231): Nd(Toxic)
C/C=C1/CC[C@H]2[C@@H]3CCC4C[C@@H](N5CCCC5)CC[C@]4(C)[C@H]3CC[C@]12C (stereo partly specified) | 4.36 µM | 
C/C=C1/C(=O)C[C@H]2[C@@H]3CCC4C[C@@H](NC)CC[C@]4(C)[C@H]3CC[C@]12C (stereo partly specified) | 18.9 µM | 
C/C=C1/C(=O)C[C@H]2[C@@H]3CCC4C[C@@H](N(C)C)CC[C@]4(C)[C@H]3CC[C@]12C (stereo partly specified) | 2.14 µM | 
C/C=C1/C(=O)C[C@H]2[C@@H]3CCC4C[C@@H](N5CCCCC5)CC[C@]4(C)[C@H]3CC[C@]12C (stereo partly specified) | > 50 µM | 

Structure (SMILES) | IC50 [1, 14] | other results
C/C=C1/[C@H](O)C[C@H]2[C@@H]3CCC4C[C@H](NC)CC[C@]4(C)[C@H]3CC[C@]12C (stereo partly specified) |  | IC50 ([1]; mda-mb-231): Nd(Toxic)
CC=C1CC[C@H]2[C@@H]3CCC4C[C@H](NC)CC[C@]4(C)[C@H]3CC[C@]12C (stereo partly specified) | > 50 µM | 
C/C=C1/[C@H](O)C[C@H]2[C@@H]3CCC4C[C@H](N5CCCCC5)CC[C@]4(C)[C@H]3CC[C@]12C (stereo partly specified) | 0.85 µM | 
C/C=C1/CC[C@H]2[C@@H]3CCC4C[C@@H](N(C)C)CC[C@]4(C)[C@H]3CC[C@]12C (stereo partly specified) | 5.51 µM | 
C/C=C1/CC[C@H]2[C@@H]3CCC4C[C@@H](N5CCCCC5)CC[C@]4(C)[C@H]3CC[C@]12C (stereo partly specified) | > 50 µM | 
C/C=C1/[C@H](O)C[C@H]2[C@@H]3CCC4C[C@@H](N5CCCCC5)CC[C@]4(C)[C@H]3CC[C@]12C (stereo partly specified) | 21.4 µM | 
O=c1cc(N2CCOCC2)oc2c(-c3ccccc3)cccc12 [LY-294002] | 0.38 µM | 
C/C=C1/[C@H](O)C[C@H]2[C@@H]3CCC4C[C@H](N5CCCC5)CC[C@]4(C)[C@H]3CC[C@]12C (stereo partly specified) | 0.26 µM | 
FC(F)c1nc2ccccc2n1-c1nc(N2CCOCC2)nc(N2CCOCC2)n1 |  | Activity (MDA-MB-231 [4]): Active
C/C=C1/C(=O)C[C@H]2[C@@H]3CCC4C[C@H](NCc5ccc(C#N)cc5)CC[C@]4(C)[C@H]3CC[C@]12C (stereo partly specified) | 2.34 µM | 
C/C=C1/C(=O)C[C@H]2[C@@H]3CCC4C[C@H](N)CC[C@]4(C)[C@H]3CC[C@]12C (stereo partly specified) | 0.3 µM | 
C/C=C1/C(=O)C[C@H]2[C@@H]3CCC4C[C@@H](NCc5ccc(C#N)cc5)CC[C@]4(C)[C@H]3CC[C@]12C (stereo partly specified) | 0.84 µM | 
C/C=C1/C(=O)C[C@H]2[C@@H]3CCC4C[C@H](N5CCCCC5)CC[C@]4(C)[C@H]3CC[C@]12C (stereo partly specified) | 0.03 µM | Activity [5]: Non-Toxic; inhibition [6]: Dose-dependent effect; inhibition (MDA-MB-231 [7]): Dose-dependent effect; Activity (MDA-MB-231 [8]): Dose-dependent effect; Activity (MDA-MB-231 [9]): Dose-dependent effect; Activity [10]: Non-Toxic; Activity (MDA-MB-231 [11]): Active; inhibition (MDA-MB-231 [12]): Dose-dependent effect; inhibition (MDA-MB-231 [13]): Dose-dependent effect
C/C=C1/CC[C@H]2[C@@H]3CCC4C[C@@H](N)CC[C@]4(C)[C@H]3CC[C@]12C (stereo partly specified) | 0.09 µM | 
CC=C1CC[C@H]2[C@@H]3CCC4C[C@@H](NC)CC[C@]4(C)[C@H]3CC[C@]12C (stereo partly specified) | 1.21 µM | 
C/C=C1/[C@H](O)C[C@H]2[C@@H]3CCC4C[C@@H](NCc5ccc(C#N)cc5)CC[C@]4(C)[C@H]3CC[C@]12C (stereo partly specified) | 15.9 µM | 
C/C=C1/C(=O)C[C@H]2[C@@H]3CCC4C[C@H](N(C)C)CC[C@]4(C)[C@H]3CC[C@]12C (stereo partly specified) | 7.37 µM | 
C/C=C1/[C@H](O)C[C@H]2[C@@H]3CCC4C[C@H](N(C)C)CC[C@]4(C)[C@H]3CC[C@]12C (stereo partly specified) | > 50 µM | 
C/C=C1/[C@H](O)C[C@H]2[C@@H]3CCC4C[C@H](NCC)CC[C@]4(C)[C@H]3CC[C@]12C (stereo partly specified) | 32.8 µM | 
C/C=C1/CC[C@H]2[C@@H]3CCC4C[C@@H](NCc5ccc(C#N)cc5)CC[C@]4(C)[C@H]3CC[C@]12C (stereo partly specified) | 26.7 µM | 
C/C=C1/[C@H](O)C[C@H]2[C@@H]3CCC4C[C@H](NCc5ccc(C#N)cc5)CC[C@]4(C)[C@H]3CC[C@]12C (stereo partly specified) |  | IC50 ([1]; mda-mb-231): Nd(Toxic)
C/C=C1/[C@H](O)C[C@H]2[C@@H]3CCC4C[C@@H](NC)CC[C@]4(C)[C@H]3CC[C@]12C (stereo partly specified) | 4.77 µM | 
C/C=C1/[C@H](O)C[C@H]2[C@@H]3CCC4C[C@H](N)CC[C@]4(C)[C@H]3CC[C@]12C (stereo partly specified) | 1.08 µM | 
